Data from patent US4873265A, “Anti-infective methods and compositions” (priority 1988, dated 1989).
Values after ≈ are worked out from the molar mass of the structure shown. Like-named read-outs stand apart in the source and are kept apart here.

Key:
Type in all cases: cell-based
[1] = test system: Micrococcus luteous; assay: In vitro zone of inhibition screening, MIC, Micrococcus luteous; conditions: aqueous solution, seeded Mueller-Hinton agar, 24 hours at 35° C.; for MIC: Micrococcus, read-out: Minimum Inhibitory Concentration, ML
Procedure: (§1) The 2% solutions listed above were diluted further with sterile water, using serial half-step dilutions. Forty lambda of each were then pipetted onto seeded Mueller-Hinton agar plates. The agar plates were then incubated for 24 hours at 35° C. and zones of inhibition were then recorded. The Minimum Inhibitory Concentration (MIC) was the lowest concentration of the test material which produced a zone of inhibition against the organism.
(§2) Stock cutaneous strains of each organism were grown in Mueller-Hinton broth for 18 hours at 35° C. Plates were seeded with the 18 hour broth culture, allowed to air dry at room temperature (about 10 minutes) and then used for determination of zones of inhibition as outlined above.

[2] = test system: Staphylococcus aureus; assay: In vitro zone of inhibition screening, MIC, Staphylococcus aureus; conditions: aqueous solution, seeded Mueller-Hinton agar, 24 hours at 35° C.; for MIC: Staphylococcus aureus, read-out: Minimum Inhibitory Concentration, SA
Procedure: as §1, §2

[3] = test system: Corenybacterium minutissimum; assay: In vitro zone of inhibition screening, MIC, Corenybacterium minutissimum
Procedure: as §1, §2

[4] = test system: Escherichia coli; assay: In vitro zone of inhibition screening, MIC, Escherichia coli; conditions: for MIC: Escherichia coli
Procedure: as §1, §2

[5] = test system: Pseudomonas aeroginosa; assay: In vitro zone of inhibition screening, MIC, Pseudomonas aeroginosa; conditions: for MIC: Pseudomonas
Procedure: as §1, §2

[6] = test system: C. albicans; assay: In vitro antimycotic activity, MIC, C. albicans; conditions: for MIC: Candida albicans
Procedure: (§3) A laboratory propagated strain of C. albicans, originally isolated from an infected skin lesion of a patient, was grown in Mueller-Hinton broth for 18 hours at 35° C. Plates were then seeded with the broth culture and allowed to air-dry at room temperature (22° C.) for about 10-15 minutes. Forty lambda of the 2% aqueous solutions or of serial half-step dilutions in water were then pipetted onto the seeded Mueller-Hinton agar plates. The plates were then incubated for 24 hours at 35° C. and zones of inhibition were then recorded. The Minimum Inhibitory Concentration (MIC) was the lowest concentration of the test material which produced a zone of inhibition against the organism. The MIC for each test material (antihistamine) is listed in the enclosed table. Table 2 lists the MIC's against C. albicans while Table 3 lists the MIC's against in vitro-grown spores of the human pathogen T. mentagrophytes. This strain was isolated from a human infection and was grown on Sabourand-Dextrose agar for 2 weeks. The spores were collected by flooding the agar plates after the 2 week growth period with a 0.01% solution of Tween-80 (sorbitol ester) and then filtering the Tween solution through gauze mesh to collect the suspension of spores. Sabourand-Dextrose agar plates are then seeded with the spore suspension. After air-drying, 40 lambda of each test solution is pipetted onto the plates and the plates left to incubate for 4 days at 22° C.

[7] = test system: Spores of T. Mentagrophytes; assay: In vitro antimycotic activity, MIC, spores of T. mentagrophytes; conditions: for MIC: Trichophyton mentagrophytes, 96 h; for activity against T. mentagrophytes: in vitro, in words
Procedure: as §3

[8] = test system: Cutaneous Bacteria; assay: In vitro zone of inhibition screening, overall (cutaneous bacteria); conditions: for Rank Order: highest inhibition (rank 1) to lowest (rank 5); for minimum inhibitory concentrations as low as: in vitro antibacterial testing, lowest MIC
Procedure: as §1, §2

[9] = aqueous solution, seeded Mueller-Hinton agar, 24 hours at 35° C., read-out: Minimum Inhibitory Concentration, CM
[10] = aqueous solution, seeded Mueller-Hinton agar, 24 hours at 35° C., read-out: Minimum Inhibitory Concentration, EC
[11] = aqueous solution, seeded Mueller-Hinton agar, 24 hours at 35° C., read-out: Minimum Inhibitory Concentration, PA
[12] = aqueous solution, Mueller-Hinton agar, 24 hours at 35° C., read-out: MIC, C. albicans
[13] = aqueous solution, Sabourand-Dextrose agar, 4 days at 22° C., read-out: MIC, spores of T. Mentagrophytes
[14] = aqueous solution, Sabourand-Dextrose agar, 4 days at 22° C.
[15] = aqueous solution, seeded Mueller-Hinton agar, 24 hours at 35° C.
[16] = aqueous solution, Mueller-Hinton agar, 24 hours at 35° C.

Row | SMILES | MIC [1] [µg/mL] | MIC [2] [µg/mL] | MIC [3, 9] [µg/mL] | MIC [4, 10] [µg/mL] | MIC [5, 11] [µg/mL] | MIC [6, 12] [µg/mL] | MIC [7, 13] [µg/mL] | Rank Order [8] | minimum inhibitory concentrations as low as [8] | MIC, spores of T. Mentagrophytes [7, 14] | activity against T. mentagrophytes [7] | MIC, C. albicans [6, 16] | further results
1 | CN(C)CCC(c1ccc(Br)cc1)c1ccccn1 (stereo not shown) [Brompheniramine, brompheniramine] | 5000 (≈ 15.7 mM) | 10000 (≈ 31.3 mM) | 3000 (≈ 9.4 mM) | 5000 (≈ 15.7 mM) | 10000 (≈ 31.3 mM) | 20000 (≈ 62.6 mM) | 20000 (≈ 62.6 mM) | 2 | 0.5-1% |  |  |  | 
2 | CN(C)CCC(c1ccc(Cl)cc1)c1ccccn1 (stereo not shown) [Chlorpheniramine, chlorpheniramine] | 5000 (≈ 18.2 mM) | 10000 (≈ 36.4 mM) | 5000 (≈ 18.2 mM) | 5000 (≈ 18.2 mM) | 10000 (≈ 36.4 mM) | 20000 (≈ 72.8 mM) |  | 2 |  | No inhibition | ineffective |  | 
3 | CN(C)CCOC(c1ccccc1)c1ccccc1 [Dimenhydrinate, dimenhydrinate] |  |  |  |  |  |  |  | 3 | 0.5% | 20000 µg/mL |  | 20000 µg/mL (≈ 78.3 mM) | Minimum Inhibitory Concentration, ML [1]: 10.0 mg/mL; Minimum Inhibitory Concentration, SA [2]: 10.0 mg/mL; Minimum Inhibitory Concentration, CM [3, 15]: 5.0 mg/mL; Minimum Inhibitory Concentration, EC [4, 15]: 5.0 mg/mL; Minimum Inhibitory Concentration, PA [5, 15]: 10.0 mg/mL
4 | CN(C)CCOC(c1ccccc1)c1ccccc1 [Diphenhydramine, diphenhydramine] |  |  |  |  |  |  |  | 1 | 0.25% |  |  |  | Minimum Inhibitory Concentration, ML [1]: 2.5 mg/mL; Minimum Inhibitory Concentration, SA [2]: 2.5 mg/mL; MIC ([3]; 24 h, read-out: Minimum Inhibitory Concentration, CM, aqueous solution, seeded Mueller-Hinton agar, 24 hours at 35° C.): 2500 µg/mL (≈ 9.79 mM); MIC ([4]; 24 h, read-out: Minimum Inhibitory Concentration, EC, aqueous solution, seeded Mueller-Hinton agar, 24 hours at 35° C.): 2500 µg/mL (≈ 9.79 mM); MIC ([5]; 24 h, read-out: Minimum Inhibitory Concentration, PA, aqueous solution, seeded Mueller-Hinton agar, 24 hours at 35° C.): 5000 µg/mL (≈ 19.6 mM); MIC ([6]; 24 h, read-out: MIC, C. albicans, aqueous solution, Mueller-Hinton agar, 24 hours at 35° C.): 10000 µg/mL (≈ 39.2 mM); MIC ([7]; read-out: MIC, spores of T. Mentagrophytes, aqueous solution, Sabourand-Dextrose agar, 4 days at 22° C.): 10000 µg/mL (≈ 39.2 mM)
5 | CN(C)CCOC(C)(c1ccccc1)c1ccccn1 (stereo not shown) [Doxylamine] |  |  |  |  |  |  |  | 5 |  | No inhibition |  | No inhibition | 
6 | COc1ccc(CN(CCN(C)C)c2ccccn2)cc1 [Pyrilamine] |  |  | 10000 (≈ 35 mM) | 10000 (≈ 35 mM) |  |  | 20000 (≈ 70.1 mM) | 4 |  |  | showed activity | No inhibition | 
7 | CN(C)CCN(Cc1ccccc1)c1ccccn1 [Tripelennamine, tripelennamine] | 10000 (≈ 39.2 mM) | 10000 (≈ 39.2 mM) | 5000 (≈ 19.6 mM) | 5000 (≈ 19.6 mM) | 10000 (≈ 39.2 mM) | 20000 (≈ 78.3 mM) | 20000 (≈ 78.3 mM) | 3 | 0.5-1% |  |  |  | 
8 | Cc1ccc(/C(=C\CN2CCCC2)c2ccccn2)cc1 [Triprolidine, triprolidine] | 10000 (≈ 35.9 mM) | 10000 (≈ 35.9 mM) | 5000 (≈ 18 mM) | 5000 (≈ 18 mM) | 10000 (≈ 35.9 mM) | 20000 (≈ 71.8 mM) |  | 3 | 0.5-1% | No inhibition | ineffective |  | 
